The target of one assay is SIK2 (Homo sapiens, UniProt Q9H0K1). The assay is described as follows: SIK2 Enzymatic Assay High Version 2 (High ATP). The class given is biochemical.
Sequence of SIK2 (Q9H0K1 whole entry, species assumed): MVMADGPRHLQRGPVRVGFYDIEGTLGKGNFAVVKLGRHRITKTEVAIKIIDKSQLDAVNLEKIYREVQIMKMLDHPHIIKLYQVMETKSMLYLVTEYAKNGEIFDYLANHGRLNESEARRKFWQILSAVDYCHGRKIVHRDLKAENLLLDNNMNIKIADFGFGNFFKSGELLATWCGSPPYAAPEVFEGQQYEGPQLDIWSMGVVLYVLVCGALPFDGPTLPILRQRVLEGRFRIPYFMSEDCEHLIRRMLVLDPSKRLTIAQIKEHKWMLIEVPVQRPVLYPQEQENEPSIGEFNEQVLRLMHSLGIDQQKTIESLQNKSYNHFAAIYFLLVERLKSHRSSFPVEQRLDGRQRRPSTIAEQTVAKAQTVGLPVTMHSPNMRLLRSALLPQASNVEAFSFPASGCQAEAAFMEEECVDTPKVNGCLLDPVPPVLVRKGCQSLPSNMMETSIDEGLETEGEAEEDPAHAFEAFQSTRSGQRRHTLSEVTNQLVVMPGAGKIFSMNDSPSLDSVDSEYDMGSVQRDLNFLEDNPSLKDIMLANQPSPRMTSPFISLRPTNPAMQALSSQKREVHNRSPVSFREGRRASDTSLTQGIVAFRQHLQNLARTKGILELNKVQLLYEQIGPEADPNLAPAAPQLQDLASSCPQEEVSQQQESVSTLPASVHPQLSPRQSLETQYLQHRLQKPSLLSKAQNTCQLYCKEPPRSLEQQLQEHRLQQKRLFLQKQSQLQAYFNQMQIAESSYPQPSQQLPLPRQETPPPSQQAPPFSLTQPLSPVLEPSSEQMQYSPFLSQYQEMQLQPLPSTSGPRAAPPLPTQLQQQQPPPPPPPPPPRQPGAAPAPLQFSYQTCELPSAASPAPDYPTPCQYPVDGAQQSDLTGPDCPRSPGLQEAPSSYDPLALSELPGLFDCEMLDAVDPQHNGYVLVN
Settings: not given
A digest of the protocol:
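At room temperature, enzyme (6 nM, 2× final) was preincubated with compound for 30 min, then 6 mM ATP and 400 μM HDAC5tide (both 2× final) were added for 2 h. ADP formed was measured by ADP-Glo Max (2 h reagent, 1 h detection) using luminescence.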
As usually defined, the IC50 is the point on the concentration scale where inhibition reaches its midpoint. Turning to `Cc1cc(-c2ccn3nc(Nc4cc(C)nc(C)n4)cc3c2)c(OC[C@@H]2CC[C@@H](O)CO2)cn1` (single isomer, unassigned) [Example 346, (3*R,6*S)-6-[[4-[2-[(2,6-dimethylpyrimidin-4-yl)amino]pyrazolo[1,5-a]pyridin-5-yl]-6-methyl-3-pyridyl]oxymethyl]tetrahydropyran-3-ol], half-maximal inhibition (IC50) was put at 0.0167 µM.

Turning to `CNC(=O)c1ccnc(Nc2cc3cc(-c4cc(C)ncc4O[C@H]4C[C@H]5COC[C@@H](C4)N5C(=O)C4CC4)ccn3n2)c1` [Example 634, 2-((5-(5-(((1R,5S,7s)-9-(cyclopropanecarbonyl)-3-oxa-9-azabicyclo[3.3.1]nonan-7-yl)oxy)-2-methylpyridin-4-yl)pyrazolo[1,5-a]pyridin-2-yl)amino)-N-methylisonicotinamide], the IC50 was found to be 0.363 µM.

In the case of `Cc1cc(-c2ccn3nc(NC(=O)C4CC4)c(C)c3c2)c(O[C@H]2C[C@H]3COC[C@@H](C2)N3)cn1` [Example 400, N-[3-methyl-5-[2-methyl-5-[[(1S,5R,7s)-3-oxa-9-azabicyclo[3.3.1]nonan-7-yl]oxy]-4-pyridyl]pyrazolo[1,5-a]pyridin-2-yl]cyclopropanecarboxamide], the midpoint of inhibition, the IC50, lay at 0.000912 µM.

Take `Cc1cc(-c2ccn3nc(Nc4cnccn4)cc3c2)c(O[C@H]2C[C@H]3COC[C@@H](C2)N3)cn1` [Example 392, 5-[2-methyl-5-[[(1S,5R,7s)-3-oxa-9-azabicyclo[3.3.1]nonan-7-yl]oxy]-4-pyridyl]-N-pyrazin-2-yl-pyrazolo[1,5-a]pyridin-2-amine]: the IC50 came out at 0.00107 µM.

For `[2H]C([2H])([2H])N1[C@@H]2COC[C@H]1C[C@@H](Oc1cnc(C)cc1-c1ccn3nc(NC(=O)C4CC4)cc3c1)C2` [Example 462, N-[5-[2-methyl-5-[[(1S,5R)-9-(trideuteriomethyl)-3-oxa-9-azabicyclo[3.3.1]nonan-7-yl]oxy]-4-pyridyl]pyrazolo[1,5-a]pyridin-2-yl]cyclopropanecarboxamide], the IC50 came to 0.00741 µM.

`Cc1cc(-c2ccn3nc(Nc4ccc(C(N)=O)cn4)cc3c2)c(O[C@H]2C[C@H]3COC[C@@H](C2)N3)cn1` [Example 376, 6-[[5-[2-methyl-5-[[(1R,5S,7s)-3-oxa-9-azabicyclo[3.3.1]nonan-7-yl]oxy]-4-pyridyl]pyrazolo[1,5-a]pyridin-2-yl]amino]pyridine-3-carboxamide]: the IC50 turned out to be 0.00136 µM.

Compound `Cc1cc(-c2ccn3nc(NC(=O)C4CC4)cc3c2)c(OC[C@H]2CCN2C2CC2)cn1` [Example 574, N-[5-[5-[[(2R)-1-cyclopropylazetidin-2-yl]methoxy]-2-methyl-4-pyridyl]pyrazolo[1,5-a]pyridin-2-yl]cyclopropanecarboxamide] had an IC50 of 0.0804 µM.

The assay is the same for the next values; noted with them: enzyme 6 nM, 6 mM ATP and 400 μM HDAC5tide (each 2× final concentration); 30 minutes pre-incubation, 2 hours; ADP-Glo Max luminescence; read-out: SIK2 high ATP IC50 (μM) (Test Example 2).
For the compound `Cc1cc(-c2ccn3nc(Nc4ccc5nccn5n4)cc3c2)c(OCC(C)(C)C#N)cn1` [Example 308, 3-[[4-[2-(imidazo[1,2-b]pyridazin-6-ylamino)pyrazolo[1,5-a]pyridin-5-yl]-6-methyl-3-pyridyl]oxy]-2,2-dimethyl-propanenitrile], the IC50 is 0.00171 µM.

In the case of `Cc1cc(Nc2cc3cc(-c4cc(CF)ncc4OCC(C)(C)O)ccn3n2)nc(C)n1` [Example 327, 1-[[4-[2-[(2,6-dimethylpyrimidin-4-yl)amino]pyrazolo[1,5-a]pyridin-5-yl]-6-(fluoromethyl)-3-pyridyl]oxy]-2-methyl-propan-2-ol], the 50% inhibitory concentration (IC50) came to 0.0366 µM.

For `Cc1cc(-c2ccn3nc(NC(=O)C4CC4)cc3c2)c(OCC2(O)CCNC2)cn1` (single isomer, unassigned) [Example 222, (*S)—N-[5-[5-[(3-hydroxypyrrolidin-3-yl)methoxy]-2-methyl-4-pyridyl]pyrazolo[1,5-a]pyridin-2-yl]cyclopropanecarboxamide], the IC50 worked out at 0.0119 µM.

Take `Cc1cc(-c2ccn3nc(Nc4cc(C)nc(C)n4)cc3c2)c(OC[C@H]2OCC[C@@H]2O)cn1` [Example 218, (2R,3S)-2-[[4-[2-[(2,6-dimethylpyrimidin-4-yl)amino]pyrazolo[1,5-a]pyridin-5-yl]-6-methyl-3-pyridyl]oxymethyl]tetrahydrofuran-3-ol]: the concentration for half-maximal inhibition (IC50) was found to be 0.00407 µM.

As for `Cc1cc(-c2ccn3nc(Nc4cccnn4)cc3c2)c(OC[C@H]2CNCC(C)(C)O2)cn1` (single isomer, unassigned) [Example 516, (*R)-5-[5-[(6,6-dimethylmorpholin-2-yl)methoxy]-2-methyl-4-pyridyl]-N-pyridazin-3-yl-pyrazolo[1,5-a]pyridin-2-amine], the IC50 was determined as 0.0528 µM.

In the case of `Cc1cc(-c2ccn3nc(Nc4cc(C)nc(C(=O)NCC(C)(C)O)n4)cc3c2)c(OCC(C)(C)O)cn1` [Example 647, 4-[[5-[5-(2-hydroxy-2-methyl-propoxy)-2-methyl-4-pyridyl]pyrazolo[1,5-a]pyridin-2-yl]amino]-N-(2-hydroxy-2-methyl-propyl)-6-methyl-pyrimidine-2-carboxamide], the IC50 stood at 0.117 µM.

As for `Cc1cc(-c2ccn3nc(Nc4cc(C)c(=O)n(C5CC5)n4)cc3c2)c(O[C@H]2CC[C@H](O)CC2)cn1` [Example 318, 2-cyclopropyl-6-[[5-[5-(4-hydroxycyclohexoxy)-2-methyl-4-pyridyl]pyrazolo[1,5-a]pyridin-2-yl]amino]-4-methyl-pyridazin-3-one], the IC50 is less than 0.000847 µM.

`Cc1cc(-c2ccn3nc(Nc4cc(C)nc(C)n4)cc3c2)c(OC[C@H]2C[C@H](O)C2)cn1` [Example 538, (1r,3r)-3-(((4-(2-((2,6-dimethylpyrimidin-4-yl)amino)pyrazolo[1,5-a]pyridin-5-yl)-6-methylpyridin-3-yl)oxy)methyl)cyclobutan-1-ol]: the IC50 worked out at 0.0129 µM.

For `Cc1cc(-c2ccn3nc(NC(=O)C4CC4)cc3c2)c(OC[C@]2(F)CCN(C)C2)cn1` (single isomer, unassigned) [Example 519, (*S)—N-[5-[5-[(3-fluoro-1-methyl-pyrrolidin-3-yl)methoxy]-2-methyl-4-pyridyl]pyrazolo[1,5-a]pyridin-2-yl]cyclopropanecarboxamide], the IC50 amounted to 0.0251 µM.

Take `Cc1cc(-c2ccn3nc(NC(=O)C4CC4)cc3c2)c(OC[C@@]2(C#N)CCN(C)C2)cn1` (single isomer, unassigned) [Example 212, (*S)—N-[5-[5-[(3-cyano-1-methyl-pyrrolidin-3-yl)methoxy]-2-methyl-4-pyridyl]pyrazolo[1,5-a]pyridin-2-yl]cyclopropanecarboxamide]: the IC50 came to 0.0472 µM.

On to `Cc1cc(-c2cn3cc(NC(=O)C4CC4)nc3cn2)c(OC2CN(C)C2)cn1` [Example 654, N-[6-[2-methyl-5-(1-methylazetidin-3-yl)oxy-4-pyridyl]imidazo[1,2-a]pyrazin-2-yl]cyclopropanecarboxamide], for which the IC50 amounted to 0.0743 µM.

Turning to `Cc1cc(-c2ccn3nc(NC(=O)C4CC4)cc3c2)c(O[C@@H]2CCC[C@@H](O)C2)cn1` (single isomer, unassigned) [Example 194, trans-N-(5-(5-(((1*R,3*R)-3-hydroxycyclohexyl)oxy)-2-methylpyridin-4-yl)pyrazolo[1,5-a]pyridin-2-yl)cyclopropanecarboxamide], the IC50 worked out at 0.0412 µM.

Take `Cc1cc(-c2ccn3nc(NC(=O)C4CC4)cc3c2)c(OC[C@]23CN[C@H](CO2)C3)cn1` [Example 253, N-[5-[2-methyl-5-[[(1S,4S)-5-oxa-2-azabicyclo[2.2.1]heptan-4-yl]methoxy]-4-pyridyl]pyrazolo[1,5-a]pyridin-2-yl]cyclopropanecarboxamide]: the half-inhibitory concentration (IC50) amounted to 0.00479 µM.

With `Cc1cc(-c2ccn3nc(Nc4cc(C)nc(C)n4)cc3c2)c(OCCN)cn1` [Example 557, 5-[5-(2-aminoethoxy)-2-methyl-4-pyridyl]-N-(2,6-dimethylpyrimidin-4-yl)pyrazolo[1,5-a]pyridin-2-amine], the IC50 was determined as 0.0494 µM.

As to `CNc1nc(C)cc(Nc2cc3cc(-c4cc(C)ncc4OCC(C)(C)C#N)ccn3n2)n1` [Example 309, 2,2-dimethyl-3-[[6-methyl-4-[2-[[6-methyl-2-(methylamino)pyrimidin-4-yl]amino]pyrazolo[1,5-a]pyridin-5-yl]-3-pyridyl]oxy]propanenitrile], the half-maximal inhibitory concentration (IC50) was less than 0.000847 µM.

In the case of `Cc1cc(-c2ccn3nc(Nc4cc(C)nc(C)n4)cc3c2)c(O[C@H]2C[C@@H](N)C2)cn1` [Example 314, 5-[5-(3-aminocyclobutoxy)-2-methyl-4-pyridyl]-N-(2,6-dimethylpyrimidin-4-yl)pyrazolo[1,5-a]pyridin-2-amine], the IC50 is 0.0129 µM.

Regarding `COc1cc(Nc2cc3cc(-c4cc(C)ncc4O[C@H]4CC[C@H](O)CC4)ccn3n2)ccc1C(=O)NC1CC1` [Example 242, N-cyclopropyl-4-[[5-[5-(4-hydroxycyclohexoxy)-2-methyl-4-pyridyl]pyrazolo[1,5-a]pyridin-2-yl]amino]-2-methoxy-benzamide], the IC50 is 0.0448 µM.

As to `Cc1cc(Nc2cc3cc(-c4cc(OC(F)F)ncc4OCC(C)(C)C(=O)N(C)C)ccn3n2)nc(C)n1` [Example 735, 3-[[6-(difluoromethoxy)-4-[2-[(2,6-dimethylpyrimidin-4-yl)amino]pyrazolo[1,5-a]pyridin-5-yl]-3-pyridyl]oxy]-N,N,2,2-tetramethyl-propanamide], the IC50 was found to be 0.00911 µM.

For the compound `Cc1cc(-c2ccn3nc(Nc4cnn(C(C)C)c4)cc3c2)c(OC2CN(C)C2)cn1` [Example 511, N-(1-isopropylpyrazol-4-yl)-5-[2-methyl-5-(1-methylazetidin-3-yl)oxy-4-pyridyl]pyrazolo[1,5-a]pyridin-2-amine], the half-inhibitory concentration (IC50) was determined as 0.0683 µM.

With `COc1ccnc(Nc2cc3cc(-c4cc(OC(F)F)ncc4OCC(C)(C)C#N)ccn3n2)n1` [Example 698, 3-[[6-(difluoromethoxy)-4-[2-[(4-methoxypyrimidin-2-yl)amino]pyrazolo[1,5-a]pyridin-5-yl]-3-pyridyl]oxy]-2,2-dimethyl-propanenitrile], the IC50 is 0.0018 µM.

Source of the values: US20240158392A1 (Janssen Biotech, Inc., priority 2021, published 2024).
